{
  "source": "patent US8394356B2",
  "about": "“Diagnostic imaging contrast agents with extended blood retention” (Lantheus Medical Imaging, Inc., priority 1995, dated 2013)",
  "key": {"[1]": {"biological_target": "T1, HSA (Homo sapiens, UniProt P02768)", "T1 sequence (P02768 25-609)": "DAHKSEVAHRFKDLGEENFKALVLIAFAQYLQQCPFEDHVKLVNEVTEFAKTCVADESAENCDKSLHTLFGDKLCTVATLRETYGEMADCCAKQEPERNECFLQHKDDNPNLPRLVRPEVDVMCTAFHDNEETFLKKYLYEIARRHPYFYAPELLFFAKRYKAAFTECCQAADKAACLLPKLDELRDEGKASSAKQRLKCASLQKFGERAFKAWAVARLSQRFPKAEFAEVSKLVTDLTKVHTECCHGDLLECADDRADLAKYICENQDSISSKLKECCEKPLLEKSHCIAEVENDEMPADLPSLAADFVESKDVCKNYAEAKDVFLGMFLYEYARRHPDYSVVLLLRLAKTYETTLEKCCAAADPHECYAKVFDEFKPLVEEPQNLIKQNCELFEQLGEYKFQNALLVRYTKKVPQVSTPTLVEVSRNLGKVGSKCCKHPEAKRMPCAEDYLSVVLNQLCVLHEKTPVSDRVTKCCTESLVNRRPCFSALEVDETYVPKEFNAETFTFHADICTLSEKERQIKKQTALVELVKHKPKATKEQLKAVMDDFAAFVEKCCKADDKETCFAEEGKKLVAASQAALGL", "assay": "HSA binding by equilibrium dialysis or ultrafiltration, 4.5% weight/volume HSA, pH 7.4 buffer", "text": "(§1) In this application, the measurement of percent binding of the contrast agent to HSA has an error of approximately ±5%."}, "[2]": {"assay": "Rat plasma pharmacokinetic experiment (Gd153 radiolabeled complexes, tail vein injection)", "experimental": "In this application, blood half-life data, as measured by AUC-conc., represents experimentation in rats.\n(§2) Rats were injected intravenously (tail vein) with 0.1 mmol/kg of the Gd^153 radiolabeled complexes. Plasma concentrations were determined over 30 minutes and fit to a standard bi-exponential two-compartment model. […] In addition, the 1/T1s of the plasma samples were recorded (at 20 MHZ, 37° C.) to assess the efficacy as MRI agents."}, "[3]": {"assay": "1/T1 of rat plasma samples after intravenous injection (efficacy as MRI agents)", "assay_type": "in vivo", "details": "rats, 0.1 mmol/kg i.v., plasma 1/T1 at 20 MHZ, 37° C., first 10 minutes", "experimental": "as §2"}, "[4]": {"biological_target": "T1, HSA", "text": "as §1"}},
  "note": "Marks after values point to notes of the source that are not given here.",
  "data": [
    {"smiles": "O=C(O)CN(CCN(CC(=O)O)CC(COP(=O)(O)OCCCCCCCCCCc1ccccc1)N(CC(=O)O)CC(=O)O)CC(=O)O", "note": "(stereo not drawn)", "values": [
      {"measurement": "fraction unbound", "setting": "[1]; human, 4.5% weight/volume human serum albumin (HSA) solution", "result": "< 0.05"},
      {"measurement": "AUC-conc. (for 0 to 10 minutes) greater than that of analogue", "setting": "[2]; 0 to 10 minutes, versus analogue drawing 27", "result": "≥ 100", "unit": "%"}
    ]},
    {"smiles": "O=C([O-])CN(CCN(CC(=O)[O-])CC(=O)O)CCN(CC(=O)[O-])CC(=O)O.[Gd+3]", "note": "[DTPA, gadolinium diethylenetriamine-pentaacetic acid]", "values": [
      {"measurement": "AUC-1/T1", "setting": "[3]", "result": 27, "unit": "s^−1 * min"},
      {"measurement": "% bound to HSA", "setting": "[1]; 4.5% HSA, error approx ±5%", "result": 0, "unit": "%"},
      {"measurement": "t1/2", "setting": "[2]; elimination half-life, rats, 0.1 mmol/kg i.v. tail vein, plasma over 30 min, bi-exponential two-compartment model", "result": 15.0, "unit": "min"},
      {"measurement": "blood half-life", "setting": "[2]; rats", "result": 15, "unit": "min"},
      {"measurement": "AUC-conc", "setting": "[2]; rats, 0.1 mmol/kg i.v., first 10 minutes, error approx ±10%", "result": 3.5, "unit": "mM·min"},
      {"measurement": "AUC-conc. from 0 to 10 minutes", "setting": "[2]; two rats, 0.1 mmol/kg tail vein, Gd153-labeled, calculated with KaleidaGraph", "result": 3.5, "unit": "mM·min"},
      {"measurement": "binding to HSA (in words)", "setting": "[4]", "result": "little or no binding to HSA"}
    ]}
  ]
}
